Experiments:
Assay type in all cases: in vitro ADME
Supersomes CYP2C9 = molecular target: T1, Supersomes CYP2C9 (Homo sapiens, UniProt P11712); assay: Individual recombinant CYP isoform stability assay, CYP2C9; conditions: 150 pmol per mL CYP2C9, 5 microgram per mL compound, 37° C., 0-60 minutes
T1 construct: purchased
Description: (§1) In Vitro Individual Recombinant CYP Isoform Stability Assays
(§2) Individual recombinant CYP isoform stability assays were conducted with Supersomes™ CYP2C19, CYP3A4, CYP3A5, CYP2D6, CYP2C8, and CYP2C9. The CYP isoforms were individually taken up in a NADPH-generating system (4.4 mM NADPH, 51.2 mM glucose 6-phosphate, 12 units per mL glucose 6-phosphate dehydrogenase and 6.6 mM magnesium chloride) in 2% sodium bicarbonate. The final assay concentrations were 100 pmol per mL for the following isoforms: CYP3A4, CYP2C19, and CYP2D6; other CYP isoforms final assay concentrations were 150 pmol per mL, including: CYP1A2 and CYP2C9; and yet other CYP isoforms final assay concentrations were 200 pmol per mL, including: CYP3A5 and CYP2C8. Test compounds were prepared as solutions in 20% acetonitrile-water and added to the assay mixture (final assay concentration 5 microgram per mL) and incubated at 37° C. Final concentration of acetonitrile in the assay should be <1%. Aliquots (50 μL) were taken out at times 0, 15, 30, 45, and 60 minutes, and diluted with ice cold acetonitrile (200 μL) to stop the reactions. Samples were centrifuged at 12,000 RPM for 10 minutes to precipitate proteins. Supernatants were transferred to microcentrifuge tubes and stored for LC/MS/MS analysis of the degradation half-life of the test compounds. […]

Supersomes CYP2C8 = molecular target: T2, Supersomes CYP2C8 (Homo sapiens, UniProt P10632); assay: Individual recombinant CYP isoform stability assay, CYP2C8; conditions: 200 pmol per mL CYP2C8, 5 microgram per mL compound, 37° C., 0-60 minutes
T2 construct: purchased
T2 sequence (P10632 1-490): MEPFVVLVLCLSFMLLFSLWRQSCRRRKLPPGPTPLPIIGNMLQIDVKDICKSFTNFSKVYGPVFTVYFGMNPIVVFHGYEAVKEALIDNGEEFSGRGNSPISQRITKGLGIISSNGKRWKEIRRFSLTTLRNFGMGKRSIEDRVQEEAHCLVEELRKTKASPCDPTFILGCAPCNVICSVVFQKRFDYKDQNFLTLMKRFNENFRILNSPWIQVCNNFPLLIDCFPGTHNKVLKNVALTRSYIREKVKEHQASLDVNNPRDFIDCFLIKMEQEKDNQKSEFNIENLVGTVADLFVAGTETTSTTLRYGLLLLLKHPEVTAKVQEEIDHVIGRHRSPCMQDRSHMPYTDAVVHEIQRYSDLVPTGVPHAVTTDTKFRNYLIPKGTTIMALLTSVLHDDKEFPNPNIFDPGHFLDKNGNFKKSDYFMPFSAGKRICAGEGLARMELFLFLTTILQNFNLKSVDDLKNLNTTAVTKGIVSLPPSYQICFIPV
Description: as §1, §2

Supersomes CYP3A4 = molecular target: T3, Supersomes CYP3A4 (Homo sapiens, UniProt P08684); assay: Individual recombinant CYP isoform stability assay, CYP3A4; conditions: 100 pmol per mL CYP3A4, 5 microgram per mL compound, 37° C., 0-60 minutes
T3 construct: purchased
Description: as §1, §2

Supersomes CYP3A5 = molecular target: T4, Supersomes CYP3A5 (Homo sapiens, UniProt P20815); assay: Individual recombinant CYP isoform stability assay, CYP3A5; conditions: 200 pmol per mL CYP3A5, 5 microgram per mL compound, 37° C., 0-60 minutes
T4 construct: purchased
Description: as §1, §2

T4 sequence (P20815 whole entry, canonical isoform): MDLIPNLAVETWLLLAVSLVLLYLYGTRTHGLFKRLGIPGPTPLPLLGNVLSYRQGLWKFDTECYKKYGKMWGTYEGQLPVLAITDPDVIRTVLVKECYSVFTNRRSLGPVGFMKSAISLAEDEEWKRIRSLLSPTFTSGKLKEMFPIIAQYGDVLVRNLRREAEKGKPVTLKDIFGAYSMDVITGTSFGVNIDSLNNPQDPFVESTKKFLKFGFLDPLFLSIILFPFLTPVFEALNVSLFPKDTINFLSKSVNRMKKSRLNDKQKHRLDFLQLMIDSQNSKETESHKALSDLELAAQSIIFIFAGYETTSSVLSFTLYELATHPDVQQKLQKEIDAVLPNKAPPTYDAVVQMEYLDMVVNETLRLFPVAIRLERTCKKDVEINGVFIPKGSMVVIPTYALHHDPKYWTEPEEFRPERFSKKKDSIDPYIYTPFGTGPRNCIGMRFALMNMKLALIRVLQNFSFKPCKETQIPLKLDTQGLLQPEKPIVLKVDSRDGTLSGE
T1 sequence (P11712 whole entry, canonical isoform): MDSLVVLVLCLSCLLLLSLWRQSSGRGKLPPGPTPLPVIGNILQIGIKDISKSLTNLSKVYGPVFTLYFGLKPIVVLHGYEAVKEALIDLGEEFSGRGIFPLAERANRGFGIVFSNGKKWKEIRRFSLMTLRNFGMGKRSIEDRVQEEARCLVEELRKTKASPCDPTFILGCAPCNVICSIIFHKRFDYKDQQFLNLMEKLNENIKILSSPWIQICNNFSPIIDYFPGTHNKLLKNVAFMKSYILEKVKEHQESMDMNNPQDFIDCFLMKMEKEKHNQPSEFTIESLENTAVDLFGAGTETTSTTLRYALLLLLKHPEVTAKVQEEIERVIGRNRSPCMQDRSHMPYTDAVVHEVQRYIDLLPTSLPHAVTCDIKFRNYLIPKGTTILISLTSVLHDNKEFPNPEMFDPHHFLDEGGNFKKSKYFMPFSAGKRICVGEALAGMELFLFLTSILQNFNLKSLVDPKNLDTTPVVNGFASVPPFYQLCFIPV
T3 sequence (P08684 whole entry, canonical isoform): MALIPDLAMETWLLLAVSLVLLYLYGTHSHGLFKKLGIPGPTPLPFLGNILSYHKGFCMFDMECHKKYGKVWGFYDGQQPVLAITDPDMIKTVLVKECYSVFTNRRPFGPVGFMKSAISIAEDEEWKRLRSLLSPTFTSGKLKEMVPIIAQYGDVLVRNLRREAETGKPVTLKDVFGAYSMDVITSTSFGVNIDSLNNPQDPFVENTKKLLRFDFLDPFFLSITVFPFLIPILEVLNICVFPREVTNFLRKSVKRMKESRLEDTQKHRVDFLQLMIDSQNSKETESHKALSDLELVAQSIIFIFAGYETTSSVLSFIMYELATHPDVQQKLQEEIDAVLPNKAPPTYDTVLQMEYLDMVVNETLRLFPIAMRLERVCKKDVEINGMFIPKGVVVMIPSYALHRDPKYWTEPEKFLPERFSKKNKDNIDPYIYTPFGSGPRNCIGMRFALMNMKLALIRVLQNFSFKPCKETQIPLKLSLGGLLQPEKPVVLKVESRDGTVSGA

CN(C)CCOC(c1ccccc1)c1ccnn1C (stereo not shown) [Cizolirtine, N,N-dimethyl-2-[(1-methyl-1H-pyrazol-5-yl)phenylmethoxy]ethanamine]
not metabolized: metabolism by CYP2C9 (Supersomes CYP2C9) | metabolism by CYP2C8 (Supersomes CYP2C8) | metabolism by CYP3A4 (Supersomes CYP3A4) | metabolism by CYP3A5 (Supersomes CYP3A5)
